{"source": "patent US20170260169A1", "about": "“INHIBITORS FOR STEROID RESPONSE ELEMENTS AND RNA POLYMERASE II AND RELATED METHODS” (priority 2007, published 2017)", "key": {"[1]": {"experiment": "Liver microsomal stability, human", "method": "(§2) Briefly, each polyamide was incubated with 1 mg/ml human or mouse microsomes at 37° C. The reaction was incubated in 100 mM KH2PO4, 2 mM NADPH, 3 mM MgCl2 at pH 7.4. Samples were also incubated in the absence of NADPH to detect NADPH-free degradation. After 60 min the samples were mixed with an equal volume of ice cold methanol stop solution. The mixture was allowed to sit on ice for at least 10 min and mixed with an equal volume of water. The samples were then centrifuged to remove the precipitates and the samples were analyzed by LC/MS/MS. Data represents % remaining by comparing with time zero concentration. The experiments were performed in duplicate."}, "[2]": {"conditions": "cited from earlier work"}, "[3]": {"experiment": "Multiple-dose subcutaneous injections, male C57BL/6J mice", "format": "in vivo", "conditions": "1 mg/kg SC every 3 days", "experimental": "In addition to single dose injections, the effects of repeated dosing of polyamides 77-80 in mice were examined. In this experiment, 8 week-old male C57BL/6J mice (n=3 per dosing group) were treated with 1 mg/kg of polyamides 77-80 by subcutaneous injection every 3 days, for a cycle of three injections and then sacrificed two days after the final injection (FIG. 31A). As in the single dosing experiments, two mice per group were subjected to histopathology analysis and all blood samples were sent for analysis. […] These mice were promptly euthanized.\nSerum from treated animals were collected by retroorbital bleeding. […] All samples were sent for analysis at IDEXX-RADIL."}, "[4]": {"conditions": "previous assay, 0.3 mg/ml enzyme (34); cited from earlier work"}, "[5]": {"experiment": "Escalating single dose subcutaneous injections, male C57BL/6J mice (weight, histopathology, serum)", "method": "Representative mice (n=2 per dosing group unless otherwise noted) were subjected to histopathology analysis by a veterinary pathologist. Blood from all mice was sampled and sent for analysis of serum markers of target organs. […] These mice were euthanized when significant duress was apparent.\nAll animal experiments were conducted under an approved protocol at the California Institute of Technology. Animals were allowed to adjust for 3 days after arrival before treatment. […] Animals were monitored daily for weight loss over 9 days and sacrificed. […] Weight was recorded on days of injection and at the experiment endpoint.\nSacrificed animals from weight loss experiments were fixed in 10% formalin and sent for histopathology analysis by IDEXX-RADIL. Histopathologic analysis was performed on the cecum, duodenum, heart, ileum, kidney, liver, lung, pancreas, spleen, and stomach. Tissue analysis was performed as a blind study to the identity of the animals.\nSerum from treated animals were collected by retroorbital bleeding. Blood samples were centrifuged at 6,000 rpm for 5 min to collect the serum. Serum ALT, AST, total bilirubin, BUN, and creatinine levels were sent for analysis by IDEXX-RADIL. Serum analysis was performed as a blind study to the identity of the animals."}, "[6]": {"experiment": "Liver microsomal stability, mouse", "method": "as §2"}, "[7]": {"system": "DNA damage in LNCaP cells", "experiment": "Alkaline comet assay in LNCaP cells", "conditions": "polyamide 10 μM 48 h; dox 5 μM 4 h", "method": "LNCaP cells were plated at 1 million cells per 10 cm plate and allowed to adhere for 24 to 36 h. Cells were then incubated with either 10 μM 77 for 48 h or 5 μM doxorubicin for 4 h. DNA damage was assayed using the Trevigen CometAssay® system and samples were prepared from harvested cells according to the manufacture protocol. Comets were imaged on a confocal microscope (Exciter, Zeiss) at 10× magnification. Percentage of DNA in the tail was determined using Comet Assay Lite IV (Perceptive Instruments). More than one hundred comets were scored for each condition.\nLNCaP cells were plated in 6 well plates at 100,000 cells per well and allowed to adhere for 36-48 h. The cells were then incubated with either 10 μM 78 for 48 h or 5 μM doxorubicin for 4 h. DNA damage was assayed using the Trevigen CometAssay system. Cells were harvested by gentle aspiration with PBS and prepared on slides according to the manufacturer's protocol. Comets slides were imaged on a confocal microscope (Exciter, Zeiss) at 10× magnification. Images were scored using Comet Assay Lite IV (Perceptive Instruments). More than 100 comets were scored for each condition. DNA damage is reported as percentage of DNA in the tail."}, "p53": {"system": "p53", "experiment": "p53 protein ELISA in LNCaP cells", "format": "cell-based", "conditions": "polyamide 10 μM 72 hr; doxorubicin 1 μM 24 hr", "experimental": "(§1) Cellular levels of RPB1 and p53 protein in LNCaP cells after treatment with 10 μM 3 for 72 h were determined by ELISA. Cells treated with DMSO vehicle and 1 μM doxorubicin for 24 h were used as control. Cellular RBP1 levels were determined by a RPB1 specific ELISA kit (Cusabio Life Sciences) according to manufacturer's instructions. Total cellular p53 protein level was determined with a pan-p53 ELISA kit (Roche) according to manufacturer's instructions. Assays were performed in biological triplicates."}, "RPB1": {"system": "RPB1", "experiment": "RPB1 protein ELISA in LNCaP cells", "format": "cell-based", "conditions": "polyamide 10 μM 72 hr; doxorubicin 1 μM 24 hr", "experimental": "as §1, with “Cellular levels of RPB1 and p53 protein in LNCaP cells after treatment with 10 μM 3 for 72 h were determined by ELISA.” left out"}, "[8]": {"conditions": "1 μM, Human, 1 hr at 37° C., 1 mg/ml microsomes"}, "[9]": {"conditions": "1 μM, Mouse, 1 hr at 37° C., 1 mg/ml microsomes"}}, "data": [{"compound": "CC(=O)N[C@@H](CNC(=O)c1cc(NC(=O)c2cc(NC(=O)c3cc(NC(=O)c4nccn4C)cn3C)cn2C)cn1C)CC(=O)Nc1cn(C)c(C(=O)Nc2cc(C(=O)Nc3cc(C(=O)Nc4cc(C(=O)NCCCN(C)CCCNC(=O)c5cccc(C(=O)O)c5)n(C)c4)n(C)c3)n(C)c2)n1", "note": "[Polyamide 80, ImPyPyPy-3-(R)^AcHNγ-ImPyPyPy-NHMe-IPA]", "values": [{"measurement": "Mean remaining parent NADPH-free", "setting": "[1]; [8]", "value": 3.8, "unit": "%"}, {"measurement": "Mean remaining parent with NADPH", "setting": "[1]; [8]", "value": 3.0, "unit": "%"}, {"measurement": "intact after 1 hour incubation", "setting": "[1]; human liver microsomes, with or without NADPH", "value": "less than 5%"}, {"measurement": "animal toxicity after single subcutaneous administration", "setting": "[2]; female C57BL/6J mice, 77 at 2.5 and 5 mg/kg, 80 at 2.3 and […]", "value": "acute animal toxicity in addition to weight loss"}, {"measurement": "renal clearance", "setting": "[2]; mouse, in vivo", "value": "significant renal clearance was exclusive to 80"}, {"measurement": "liver and kidney histopathology", "setting": "[3]", "value": "marked hepatocellular necrosis and apoptosis in the liver and hyaline droplet accumulation in the kidneys"}, {"measurement": "weight and physical morbidity", "setting": "[3]; three injections", "value": "dramatic weight loss, loss of mobility, and hunched posture within six days"}, {"measurement": "stability against rat and human microsomes", "setting": "[4]", "value": "stable"}, {"measurement": "tolerability, behavior and morbidity after single SC dose", "setting": "[5]; 1, 3, 10 mg/kg", "value": "only tolerated at 1 mg/kg"}, {"measurement": "kidney histopathology", "setting": "[5]; single SC 1 mg/kg", "value": "Milder tubular regeneration and karyomegaly"}, {"measurement": "liver histopathology", "setting": "[5]; single SC 1 mg/kg", "value": "Mild hepatocellular necrosis and apoptosis"}, {"measurement": "kidney histopathology", "setting": "[5]; single SC 3 mg/kg", "value": "Moderate atypical tubular regeneration"}, {"measurement": "liver histopathology", "setting": "[5]; single SC 3 mg/kg", "value": "multifocal bridging hepatocellular necrosis and apoptosis"}, {"measurement": "spleen histopathology", "setting": "[5]; single SC 3 mg/kg", "value": "Mild lymphoid apoptosis in the white pulp of the spleen"}, {"measurement": "kidney histopathology", "setting": "[5]; single SC 10 mg/kg", "value": "Moderate atypical tubular regeneration"}, {"measurement": "liver histopathology", "setting": "[5]; single SC 10 mg/kg", "value": "multifocal bridging hepatocellular necrosis and apoptosis"}, {"measurement": "spleen histopathology", "setting": "[5]; single SC 10 mg/kg", "value": "Mild lymphoid apoptosis in the white pulp of the spleen"}, {"measurement": "serum kidney markers creatinine and BUN", "setting": "[5]; single SC dose", "value": "significantly elevated creatinine and BUN at 10 mg/kg, and elevated BUN at 3 mg/kg"}, {"measurement": "serum liver markers AST, ALT, total bilirubin", "setting": "[5]; single SC dose", "value": "marked and severe elevations of AST, ALT, and total bilirubin at both 3 mg/kg and 10 mg/kg"}, {"measurement": "Mean remaining parent NADPH-free", "setting": "[6]; [9]", "value": 4.9, "unit": "%"}, {"measurement": "Mean remaining parent with NADPH", "setting": "[6]; [9]", "value": 4.0, "unit": "%"}, {"measurement": "intact after 1 hour incubation", "setting": "[6]; mouse liver microsomes, with or without NADPH", "value": "less than 5%"}]}, {"compound": "COc1cccc2c1C(=O)c1c(O)c3c(c(O)c1C2=O)C[C@@](O)(C(=O)CO)C[C@@H]3O[C@H]1C[C@H](N)[C@H](O)[C@H](C)O1", "note": "[doxorubicin, reference compound]", "values": [{"measurement": "DNA damage by comet assay", "setting": "[7]", "value": "significantly increases comet-tail percent of DNA"}, {"measurement": "cellular level of p53 protein", "setting": "p53", "value": "increases"}, {"measurement": "RPB1 protein", "setting": "RPB1", "value": "decreases"}]}]}
